Some results are limits rather than exact numbers.

In experiment [1] the target is T1, human A1 adenosine receptor (Homo sapiens, UniProt P30542).
T1 sequence (P30542 1-326): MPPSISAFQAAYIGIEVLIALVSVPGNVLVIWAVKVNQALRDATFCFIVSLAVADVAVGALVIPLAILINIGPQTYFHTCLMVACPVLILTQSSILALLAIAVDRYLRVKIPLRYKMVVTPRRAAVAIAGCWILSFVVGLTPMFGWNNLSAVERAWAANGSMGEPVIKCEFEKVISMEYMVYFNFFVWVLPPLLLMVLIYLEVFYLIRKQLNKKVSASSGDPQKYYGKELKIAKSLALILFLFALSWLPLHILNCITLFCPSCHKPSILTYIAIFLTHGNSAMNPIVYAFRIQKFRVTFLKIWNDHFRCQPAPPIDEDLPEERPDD
As to the kind of experiment: Radioligand binding, human A1 AR, CHO membranes (Table 1). To be noted: for A1 % inhib.: species H (human), percent in parentheses, concentration not marked.

The target in experiment [2] is T2, human A3 adenosine receptor (Homo sapiens, UniProt P0DMS8).
T2 sequence (P0DMS8 1-318): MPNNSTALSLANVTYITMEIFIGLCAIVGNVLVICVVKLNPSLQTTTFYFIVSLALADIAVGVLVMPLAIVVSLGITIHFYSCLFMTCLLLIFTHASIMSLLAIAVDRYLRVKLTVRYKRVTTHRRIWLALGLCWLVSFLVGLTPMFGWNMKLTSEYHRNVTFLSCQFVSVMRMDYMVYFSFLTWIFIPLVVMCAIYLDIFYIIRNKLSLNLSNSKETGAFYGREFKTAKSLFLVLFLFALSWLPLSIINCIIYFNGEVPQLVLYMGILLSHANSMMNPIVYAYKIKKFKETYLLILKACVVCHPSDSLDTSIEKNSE
As to the kind of experiment: [125I]I-AB-MECA binding, human A3 AR, CHO membranes (Table 1). The note with it: for Ki: A3 Ki, species H (human).

Experiment [3] deals with mouse A2A adenosine receptor (Mus musculus, UniProt Q60613). As to the kind of experiment: Competition radioligand binding, mouse A2A AR, HEK293 membranes (Table 1). To be noted: for inhibition at 100 µM: read-out: A2A % inhib.
Chain of mouse A2A adenosine receptor (Q60613 whole entry): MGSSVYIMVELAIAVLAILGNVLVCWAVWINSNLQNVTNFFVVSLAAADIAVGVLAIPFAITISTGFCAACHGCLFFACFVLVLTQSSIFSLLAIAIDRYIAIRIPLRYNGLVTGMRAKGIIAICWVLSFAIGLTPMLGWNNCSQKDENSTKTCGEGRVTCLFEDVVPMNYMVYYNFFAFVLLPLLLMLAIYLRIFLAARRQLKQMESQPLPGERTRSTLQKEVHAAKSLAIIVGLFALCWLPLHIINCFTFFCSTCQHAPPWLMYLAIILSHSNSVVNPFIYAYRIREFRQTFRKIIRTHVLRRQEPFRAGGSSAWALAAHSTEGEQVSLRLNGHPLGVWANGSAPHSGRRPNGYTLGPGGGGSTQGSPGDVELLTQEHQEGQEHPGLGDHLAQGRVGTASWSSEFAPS
The target of experiment [4] is human A2A adenosine receptor (Homo sapiens, UniProt P29274). As to the kind of experiment: Radioligand binding, human A2A AR (Table 1). To be noted: for inhibition at 10 µM: read-out: A2A % inhib.
Chain of human A2A adenosine receptor (P29274 whole entry): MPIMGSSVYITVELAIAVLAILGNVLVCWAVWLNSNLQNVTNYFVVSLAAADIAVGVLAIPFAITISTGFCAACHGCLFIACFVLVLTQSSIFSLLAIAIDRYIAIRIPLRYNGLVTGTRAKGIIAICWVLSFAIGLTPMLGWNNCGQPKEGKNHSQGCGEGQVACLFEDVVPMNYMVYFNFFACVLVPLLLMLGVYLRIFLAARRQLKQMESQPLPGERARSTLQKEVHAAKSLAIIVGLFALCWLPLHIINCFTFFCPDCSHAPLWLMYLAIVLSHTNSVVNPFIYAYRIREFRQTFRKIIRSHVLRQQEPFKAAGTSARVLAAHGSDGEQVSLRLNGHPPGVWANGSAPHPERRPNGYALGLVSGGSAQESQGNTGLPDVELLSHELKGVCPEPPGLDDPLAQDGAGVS
Experiment [5] deals with T3, mouse A3 adenosine receptor (Mus musculus, UniProt Q61618).
T3 sequence (Q61618 1-319): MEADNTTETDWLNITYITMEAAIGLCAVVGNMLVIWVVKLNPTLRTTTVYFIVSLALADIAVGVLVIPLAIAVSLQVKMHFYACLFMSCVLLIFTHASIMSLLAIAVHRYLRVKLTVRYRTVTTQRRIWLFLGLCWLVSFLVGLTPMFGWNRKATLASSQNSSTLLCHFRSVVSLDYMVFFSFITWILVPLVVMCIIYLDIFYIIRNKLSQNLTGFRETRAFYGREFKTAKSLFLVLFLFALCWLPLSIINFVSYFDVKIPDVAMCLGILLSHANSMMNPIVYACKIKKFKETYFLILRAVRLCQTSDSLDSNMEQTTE
As to the kind of experiment: Competition radioligand binding, mouse A3 AR, HEK293 membranes (Table 1). The note with it: for Ki: A3 Ki, species M (mouse), [125I]I-AB-MECA; for Selectivity A1/A3: mouse.

Experiment [6] has as its target T4, mouse A1 adenosine receptor (Mus musculus, UniProt Q60612).
T4 sequence (Q60612 1-326): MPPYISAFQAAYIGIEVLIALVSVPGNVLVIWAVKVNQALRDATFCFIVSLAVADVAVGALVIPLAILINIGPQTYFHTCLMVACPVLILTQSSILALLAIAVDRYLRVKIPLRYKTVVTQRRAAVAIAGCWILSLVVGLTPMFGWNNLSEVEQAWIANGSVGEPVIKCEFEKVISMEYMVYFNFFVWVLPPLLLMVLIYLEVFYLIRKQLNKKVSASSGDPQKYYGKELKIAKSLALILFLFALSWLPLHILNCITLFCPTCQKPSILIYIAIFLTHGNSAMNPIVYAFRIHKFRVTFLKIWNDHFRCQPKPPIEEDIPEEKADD
As to the kind of experiment: Competition radioligand binding, mouse A1 AR, HEK293 membranes (Table 1).

For experiment [7], the target named is T5, hA2AAR (Homo sapiens, UniProt P29274).
T5 construct: expressed in transfected cells
T5 sequence (P29274 whole entry): as the sequence (P29274 whole entry) above
As to the kind of experiment: Binding at hA2AAR, HEK-293 membranes (Example 7). The note with it: read-out: % inhibition hA2A. The procedure: After harvesting, cells were homogenized and suspended in PBS.
Nonspecific binding was determined using a final concentration of 10 μM 51 diluted with the buffer.

The target in experiment [8] is T6, hA1AR (Homo sapiens, UniProt P30542).
T6 construct: expressed in transfected cells; host or cells: CHO
T6 sequence (P30542 1-326): T1 sequence (P30542 1-326)
As to the kind of experiment: Binding at hA1AR, CHO membranes (Example 7). The note with it: read-out: % inhibition hA1.
Protocol: CHO cells stably expressing the recombinant hA1, hA3, and rA3Rs, and HEK-293 cells stably expressing the hA2AAR were cultured in Dulbecco's modified Eagle medium (DMEM) and F12 (1:1) supplemented with 10% fetal bovine serum, 100 units/mL penicillin, 100 μg/mL streptomycin, and 2 μmol/mL glutamine. In addition, 800 μg/mL geneticin was added to the A2A media, while 500 μg/mL hygromycin was added to the A1 and A3 media. After harvesting, cells were homogenized and suspended in PBS. Cells were then centrifuged at 240 g for 5 min, and the pellet was resuspended in 50 mM Tris-HCl buffer (pH 7.5) containing 10 mM MgCl2. The suspension was homogenized and was then ultra-centrifuged at 14,330 g for 30 min at 4° C. […] The protein concentration was measured using the BCA Protein Assay Kit from Pierce Biotechnology, Inc. (Rockford, Ill.).
Into each tube in the binding assay was added 50 μL of increasing concentrations of the test ligand in Tris-HCl buffer (50 mM, pH 7.5) containing 10 mM MgCl2, 50 μL of the appropriate agonist radioligand, and finally 100 μL of membrane suspension. […] For the A2AAR (20 μg/tube) the radioligand used was [^3H]53 (10 nM). […] Nonspecific binding was determined using a final concentration of 10 μM 51 diluted with the buffer. The mixtures were incubated at 25° C. for 60 min in a shaking water bath. Binding reactions were terminated by filtration through Brandel GF/B filters under a reduced pressure using a M-24 cell harvester (Brandel, Gaithersburg, Md.). Filters were washed three times with 3 mL of 50 mM ice-cold Tris-HCl buffer (pH 7.5). […] Filters for A3AR binding were counted using a Packard COBRA™ II γ-counter. The Ki values were determined using GraphPad Prism for all assays.

The target in experiment [9] is T7, hA3AR (Homo sapiens, UniProt P0DMS8).
T7 construct: expressed in transfected cells; host or cells: CHO
T7 sequence (P0DMS8 1-318): T2 sequence (P0DMS8 1-318)
As to the kind of experiment: Binding at hA3AR, CHO membranes (Example 7). The note with it: read-out: Affinity (Ki, nM) hA3.

By Ki is commonly meant the dissociation constant of the complex between target and ligand, obtained from inhibition or displacement. Regarding `CNC(=O)C12CC1C(n1cnc3c(NCc4cccc(Cl)c4)nc(C#CCCC(=O)NCCNC(=O)CCCCC4SCC5NC(=O)NC54)nc31)C(O)C2O` (stereo not drawn) [Compound 42, (1′S,2′R,3′S,4′S,5′S)-4′-[6-(3-Chlorobenzylamino)-2-(N-biotinyl(β-aminoethylaminocarbonyl)-1-butynyl)-9-yl]-2′,3′-dihydroxybicyclo[3.1.0]hexane-1′-carboxylic acid N-methylamide], the A1 % inhib. entry in experiment [1] is recorded as “(13 ± 6%)”. In experiment [2], this molecule came in with a Ki of 36.4 ± 5.6 nM.
Consider `CNC(=O)C12CC1C(n1cnc3c(NCc4cccc(Cl)c4)nc(I)nc31)C(O)C2O` (centres unmarked) [Compound 1], for which the inhibition at 100 µM in experiment [3] stood at 40%. Moreover, the Ki in experiment [4] was over 10000 nM.
As for `CNC(=O)C12CC1C(n1cnc3c(NCc4cc(OC)ccc4OC)nc(I)nc31)C(O)C2O` (stereo not drawn) [Compound 2, (1′S,2′R,3′S,4′S,5′S)-4′-[6-(2,5-Dimethoxybenzylamino)-2-iodopurin-9-yl]-2′,3′-dihydroxybicyclo[3.1.0]hexane-1′-carboxylic acid N-methylamide], the inhibition at 100 µM in experiment [3] came to 14%. For the same molecule, the inhibition at 10 µM in experiment [4] came to 35%.
Consider `CNC(=O)C12CC1C(n1cnc3c(NCc4cccc(Cl)c4)nc(C#CCCC(=O)NCCNCCN)nc31)C(O)C2O` (centres unmarked) [Compound 41], for which the Ki in experiment [4] was determined as 890 ± 110 nM; in experiment [2], 15.4 ± 4.4 nM. For the same molecule, in [1], the A1 % inhib. result is on record as “(14 ± 8%)”.
On to `CNC(=O)C12CC1C(n1cnc3c(NCc4cccc(Cl)c4)nc(C#CCCCCC(=O)O)nc31)C(O)C2O` (centres unmarked) [Compound 34], for which, in experiment [1], the A1 % inhib. entry is recorded as “(5 ± 3%)”. In experiment [2], affinity was put at a Ki of 12.4 ± 1.8 nM.
For `CNC(=O)C12CC1C(n1cnc3c(NCc4cccc(Cl)c4)nc(C#CCCC(=O)NCCCN)nc31)C(O)C2O` (stereo not drawn) [Compound 39, (1′S, 2′R, 3′S, 4′S, 5′S)-4′-[6-(3-Chlorobenzylamino)-2-(4-(β-aminopropylaminocarbonyl)-1-butynyl)-9-yl]-2′,3′-dihydroxybicyclo[3.1.0]hexane-1′-carboxylic acid N-methylamide], the results for the Ki in experiment [4] and in experiment [2] were 979 ± 181 nM and 3.1 ± 0.4 nM, respectively. In addition, in experiment [1], the A1 % inhib. entry is reported as “(16 ± 4%)”.
Take `CNC(=O)C12CC1C(n1cnc3c(NCC(c4ccccc4)c4ccccc4)nc(Cl)nc31)C(O)C2O` (centres unmarked) [Compound 18]: the Ki in experiment [3] was 1810 ± 581 nM; in experiment [5], 1.67 ± 0.09 nM; in [6], 6.83 ± 1.5 nM. In experiment [5], the “Selectivity A1/A3” value is 4.1.
As for `CNC(=O)C12CC1C(n1cnc3c(NCc4cccc(Cl)c4)nc(C#CCCCC(=O)O)nc31)C(O)C2O` (stereo not drawn) [Compound 7, (1′S,2′R,3′S,4′S,5′S)-4′-[6-(3-chlorobenzylamino)-2-(5-hydroxycarbonyl-1-pentynyl)-9-yl]-2′,3′-dihydroxybicyclo[3.1.0]hexane-1′-carboxylic acid N-methylamide], the inhibition at 100 µM in [3] amounted to 8%. For the same molecule, in experiment [4], the inhibition at 10 µM came out at 43%.
As for `CNC(=O)C12CC1C(n1cnc3c(NCc4cccc(Cl)c4)nc(C#CCCC(=O)NCCN)nc31)C(O)C2O` (stereo not drawn) [Compound 37, (1′S, 2′R, 3′S, 4′S, 5′S)-4′-[6-(3-Chlorobenzylamino) 2-(4-(β-aminoethylaminocarbonyl)-1-butynyl)-9-yl]-2′,3′-dihydroxybicyclo[3.1.0]hexane-1′-carboxylic acid N-methylamide], the Ki in experiment [4] is 550 ± 83 nM; in experiment [2], 2.5 ± 0.5 nM. For the same molecule, the A1 % inhib. entry in experiment [1] was “(25 ± 12%)”. Moreover, the “Selectivity A1/A3” value in [2] (human) is listed as “up to 1900”.
With `CNC(=O)C12CC1C(n1cnc3c(NCc4cccc(Cl)c4)nc(SC)nc31)C(O)C2O` (centres unmarked) [Compound 20], the inhibition at 100 µM in experiment [3] was 32%. Besides, the Ki came out at 10000 nM in [4]; 1.19 ± 0.09 nM in experiment [5]; 610 nM in [1]; 1.5 nM in [2]; 98.9 ± 18.8 nM in experiment [6]. Also, the “Selectivity A1/A3” value in [5] amounted to 83.
In the case of `CCN1C(=CC=CC=CC2=[N+](CCCCCC(=O)NCCNC(=O)CCC#Cc3nc(NCc4cccc(Cl)c4)c4ncn(C5C(O)C(O)C6(C(=O)NC)CC56)c4n3)c3ccc(S(=O)(=O)[O-])cc3C2(C)C)C(C)(C)c2cc(S(=O)(=O)O)ccc21` (stereo not drawn) [Compound 44, (1′S,2′R,3′S,4′S,5′S)-4′-[6-(3-Chlorobenzylamino)-2-(N-Cyanine(β-aminoethylaminocarbonyl)-1-butynyl)-9-yl]-2′,3′-dihydroxybicyclo[3.1.0]hexane-1′-carboxylic acid N-methylamide], in experiment [1], the A1 % inhib. entry is “(10 ± 4%)”.
For the molecule `CNC(=O)C12CC1C(n1cnc3c(NCc4cccc(C#CCCCC(=O)O)c4)nc(Cl)nc31)C(O)C2O` (centres unmarked) [Compound 9], the inhibition at 100 µM in [3] is 5%. Moreover, the inhibition at 10 µM in [4] came out at 14%.
With `CNC(=O)C12CC1C(n1cnc3c(NCc4cccc(Cl)c4)nc(C#CCCCC(=O)OC)nc31)C(O)C2O` (stereo not drawn) [Compound 6, (1′S,2′R,3′S,4′S,5′S)-4′-[6-(3-Chlorobenzylamino)-2-(5-methoxycarbonyl-1-pentynyl)-9-yl]-2′,3′-dihydroxybicyclo[3.1.0]hexane-1′-carboxylic acid N-methylamide], the inhibition at 100 µM in experiment [3] amounted to 50%. In addition, in [4], the inhibition at 10 µM came to 49%. In addition, the Ki in experiment [5] was determined as 4.65 ± 0.53 nM; in experiment [1], 482 ± 23 nM; in experiment [6] it was 1340 ± 330 nM.
As to `CNC(=O)C12CC1C(n1cnc3c(NCc4cccc(Cl)c4)nc(C#CCCCCC(=O)NCCN)nc31)C(O)C2O` (stereo not drawn) [Compound 38, (1′S,2′R,3′S,4′S,5′S)-4′-[6-(3-Chlorobenzylamino)-2-(6-(β-aminoethylaminocarbonyl)-1-hexynyl)-9-yl]-2′,3′-dihydroxybicyclo[3.1.0]hexane-1′-carboxylic acid N-methylamide], the Ki in [4] came to 277 ± 33 nM; in experiment [2], 3.4 ± 0.7 nM. Besides, the A1 % inhib. result in experiment [1] is on record as “(21 ± 6%)”.
For the molecule `CNC(=O)C12CC1C(n1cnc3c(NCc4cccc(C#CCCCC(=O)NCCNC(C)=O)c4)nc(Cl)nc31)C(O)C2O` (centres unmarked) [Compound 11], the inhibition at 100 µM in experiment [3] turned out to be 68%. For the same molecule, the inhibition at 10 µM in experiment [4] is 80%.
As to `CNC(=O)[C@@]12C[C@@H]1[C@@H](n1cnc3c(NC)nc(C#Cc4ccccc4F)nc31)[C@H](O)[C@@H]2O` [Compound 311, (1S,2R,3S,4R,5S)-4-(2-((2-Fluorophenyl)ethynyl)-6-(methylamino)-9H-purin-9-yl)-2,3-dihydroxy-N-methylbicyclo[3.1.0]hexane-1-carboxamide], the inhibition at 10 µM was 17% in experiment [7] and 20% in [8]. For the same molecule, the inhibitory constant (Ki) in [9] turned out to be 0.97 ± 0.38 nM.
The corresponding values for `CNC(=O)[C@@]12C[C@@H]1[C@@H](n1cnc3c(NCc4cccc(Cl)c4)nc(C#Cc4ccc5ccc6cccc7ccc4c5c67)nc31)[C@H](O)[C@@H]2O` [Compound 336, (1S,2R,3S,4R,5S)-4-(6-(3-Chlorobenzylamino)-2-(pyren-1-ylethynyl)-9H-purin-9-yl)-2,3-dihydroxy-N-methylbicyclo[3.1.0]hexane-1-carboxamide] are 66%, 6% and 68.3 ± 12.5 nM.

These data come from US8916570B2 (The United States of America, as represented by the …, priority 2008, dated 2014).
